The record followed here is PubChem BioAssay AID330 (DTP/NCI, 2004).

This assay relates to P388 leukemia ip, CD2F1 mice, survival T/C. The assay is described as follows: NCI In Vivo Anticancer Drug Screen. Data for tumor model P388 Leukemia (intraperitoneal) in CD2F1 (CDF1) mice. The conditions noted are these: endpoint: median survival time, higher = longer survival. The method, boiled down: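 Mice carrying the transplanted tumor received test compound or vehicle. Survival was recorded in each group, and the value is the treated-group measurement divided by that of the vehicle-treated control group.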

Setting [1] is: dose: 60.0 mg/kg/injection, schedule: Q01DX005 (ip), vehicle: saline with Tween-80.
The mark [2] stands for this setting: dose: 120.0 mg/kg/injection, schedule: Q01DX005 (ip), vehicle: saline with Tween-80.
The mark [3] stands for this setting: dose: 240.0 mg/kg/injection, schedule: Q01DX005 (ip), vehicle: saline with Tween-80.
[4] abbreviates: dose: 50.0 mg/kg/injection, schedule: Q01DX009 (ip), vehicle: saline with Tween-80.
[5] abbreviates: dose: 60.0 mg/kg/injection, schedule: Q01DX005 (ip), vehicle: Klucel (hydroxypropylcellulose) (HPC).
[6] abbreviates: dose: 100.0 mg/kg/injection, schedule: Q01DX009 (ip), vehicle: saline with Tween-80.
Where [7] appears, read: dose: 120.0 mg/kg/injection, schedule: Q01DX005 (ip), vehicle: Klucel (hydroxypropylcellulose) (HPC).
The mark [8] stands for this setting: dose: 240.0 mg/kg/injection, schedule: Q01DX005 (ip), vehicle: Klucel (hydroxypropylcellulose) (HPC).
[9] abbreviates: dose: 50.0 mg/kg/injection, schedule: Q01DX009 (ip), vehicle: Klucel (hydroxypropylcellulose) (HPC).
Where [10] appears, read: dose: 100.0 mg/kg/injection, schedule: Q01DX009 (ip), vehicle: Klucel (hydroxypropylcellulose) (HPC).
The mark [11] stands for this setting: dose: 200.0 mg/kg/injection, schedule: Q01DX009 (ip), vehicle: Klucel (hydroxypropylcellulose) (HPC).
The mark [12] stands for this setting: dose: 200.0 mg/kg/injection, schedule: Q01DX009 (ip), vehicle: saline with Tween-80.
Where [13] appears, read: dose: 100.0 mg/kg/injection, schedule: Q04DX003 (ip), vehicle: saline with Tween-80.
Where [14] appears, read: dose: 200.0 mg/kg/injection, schedule: Q04DX003 (ip), vehicle: saline with Tween-80.
Setting [15] is: dose: 50.0 mg/kg/injection, schedule: Q01DX005 (ip), vehicle: Klucel (hydroxypropylcellulose) (HPC).
The mark [16] stands for this setting: dose: 400.0 mg/kg/injection, schedule: Q04DX003 (ip), vehicle: saline with Tween-80.

Molecules are shown by their SMILES. Where “and” joins values, the source holds several entries; their conditions need not be identical. Equal values may be shown once. Toxic doses and inconclusive results are not listed.

As to `CC(C)N(C(=O)c1ccc([Si](C)(C)C)c(C(=O)N(C(C)C)C(C)C)n1)C(C)C`, the T/C is 98 % of control under setting [1], 94 % of control under setting [2] and 98 % of control under setting [3].

In the case of `O=S(=O)(c1ccccc1)N1OC1c1ccccc1` (stereo unspecified), the T/C is 100 % of control under setting [4]; 104 % of control under setting [5]; 86 % of control under setting [6]; 104 % of control under setting [7]; 99 % of control under setting [8].

`Cc1ccc([N+](=O)[O-])cc1I`: the T/C is, setting by setting: under setting [9], 99 % of control; under setting [10], 99 % of control; under setting [11], 100 % of control.

With `NC1=NS(=O)(=O)Nc2nonc21`, the T/C was 96 % of control under setting [4], 89 % of control under setting [6] and 89 % of control under setting [12].

`O/N=C/C(Cl)=N\O`: the T/C (dose: 100.0 mg/kg/injection, schedule: Q04DX002 (ip), vehicle: saline with Tween-80) was 91 % of control and the T/C (dose: 200.0 mg/kg/injection, schedule: Q04DX002 (ip), vehicle: saline with Tween-80) is 90 % of control.

`CCCCC[C@@H]1CC=CC(NC(=O)OCc2ccccc2)C1C=O` (stereo partly specified): the T/C is 100 % of control under setting [1], 103 % of control under setting [2] and 105 % of control under setting [3].

In the case of `FC(F)(Br)C(F)(Cl)Br` (stereo unspecified), the T/C was 101 % of control (dose: 50.0 mg/kg/injection, schedule: Q01DX005 (ip), vehicle: saline with Tween-80); 99 % of control (dose: 100.0 mg/kg/injection, schedule: Q01DX005 (ip), vehicle: saline with Tween-80); 114 % of control (dose: 200.0 mg/kg/injection, schedule: Q01DX005 (ip), vehicle: saline with Tween-80).

Consider `CCCCCCCCCCCCCCCCCCOP(=O)(CC(=O)NCc1cc(C(C)(C)C)c(O)c(C(C)(C)C)c1)OCCCCCCCCCCCCCCCCCC`, for which the T/C is, setting by setting: (dose: 12.5 mg/kg/injection, schedule: Q04DX003 (ip), vehicle: saline with Tween-80) 96 % of control; (dose: 25.0 mg/kg/injection, schedule: Q04DX003 (ip), vehicle: saline with Tween-80) 101 % of control; (dose: 50.0 mg/kg/injection, schedule: Q04DX003 (ip), vehicle: saline with Tween-80) 92 % of control; under setting [13], 86 % of control; under setting [14], 100 % of control.

For `O=C(CNC(=O)c1ccccc1)N/N=C/c1ccco1`, the T/C under setting [1] is 95 % of control, the T/C under setting [2] was 101 % of control and the T/C under setting [3] was 100 % of control.

Consider `O=C(C(=O)C(Br)Br)C(Br)Br`, for which the T/C reads like this: (dose: 1.56 mg/kg/injection, schedule: Q01DX009 (ip), vehicle: DMSO) 99 % of control; (dose: 3.12 mg/kg/injection, schedule: Q01DX009 (ip), vehicle: DMSO) 103 % of control; (dose: 6.25 mg/kg/injection, schedule: Q01DX009 (ip), vehicle: DMSO) 99 % of control.

For `CC1=C(C(=O)Nc2ccc(C)cc2C)C(c2cccc([N+](=O)[O-])c2)C(C(=O)Nc2ccc(C)cc2C)=C(C)N1`, the T/C is, setting by setting: (dose: 7.5 mg/kg/injection, schedule: Q01DX005 (ip), vehicle: Klucel (hydroxypropylcellulose) (HPC)) 100 % of control; (dose: 15.0 mg/kg/injection, schedule: Q01DX005 (ip), vehicle: Klucel (hydroxypropylcellulose) (HPC)) 94 % of control; (dose: 30.0 mg/kg/injection, schedule: Q01DX005 (ip), vehicle: Klucel (hydroxypropylcellulose) (HPC)) 98 % of control.

For the compound `CCc1nc(N)nc(N)c1-c1ccc(NCCN)c(N)c1`, the T/C reads like this: (dose: 12.5 mg/kg/injection, schedule: Q01DX005 (ip), vehicle: Klucel (hydroxypropylcellulose) (HPC)) 104 % of control; (dose: 25.0 mg/kg/injection, schedule: Q01DX005 (ip), vehicle: Klucel (hydroxypropylcellulose) (HPC)) 101 % of control; under setting [15], 103 % of control and 107 % of control.

On to `CC1=C(C)[CH2][Ge]([CH3])([CH3])[CH2]1`, for which the T/C is 98 % of control (dose: 60.0 mg/kg/injection, schedule: Q01DX005 (ip), vehicle: saline); 104 % of control (dose: 120.0 mg/kg/injection, schedule: Q01DX005 (ip), vehicle: saline); 97 % of control (dose: 240.0 mg/kg/injection, schedule: Q01DX005 (ip), vehicle: saline).

Turning to `CC(=O)Nc1nc(N(C)C)nc(N(C)C)n1`, the T/C (dose: 50.0 mg/kg/injection, schedule: Q04DX002 (ip), vehicle: saline) was 109 % of control; the T/C (dose: 100.0 mg/kg/injection, schedule: Q04DX002 (ip), vehicle: saline) is 107 % of control; the T/C (dose: 200.0 mg/kg/injection, schedule: Q04DX002 (ip), vehicle: saline) is 114 % of control.

For the compound `COc1cc2c(cc1OC)C(=O)OC(=O)C2`, the T/C is, setting by setting: under setting [15], 100 % of control; (dose: 100.0 mg/kg/injection, schedule: Q01DX005 (ip), vehicle: Klucel (hydroxypropylcellulose) (HPC)) 92 % of control; (dose: 200.0 mg/kg/injection, schedule: Q01DX005 (ip), vehicle: Klucel (hydroxypropylcellulose) (HPC)) 95 % of control.

With `c1cc2c(cc1CN1CCOCC1)Sc1cc(CN3CCOCC3)ccc1N2`, the T/C under setting [5] is 96 % of control, the T/C under setting [7] was 89 % of control and the T/C under setting [8] is 92 % of control.

Turning to `Cc1ccc(Nc2n[nH]c(=S)s2)cc1C`, the T/C was 90 % of control under setting [13], 90 % of control under setting [14] and 95 % of control under setting [16].

Regarding `COCC1(COC)CCN(C2CC(O[C@H]3C[C@](O)(C(C)=O)Cc4c(O)c5c(c(O)c43)C(=O)c3c(OC)cccc3C5=O)OC(C)C2O)CC1` (stereo partly specified), the T/C (dose: 1.56 mg/kg/injection, schedule: Q04DX003 (ip), vehicle: water) was 103 % of control; the T/C (dose: 3.12 mg/kg/injection, schedule: Q04DX003 (ip), vehicle: water) was 110 % of control and 113 % of control; the T/C (dose: 12.5 mg/kg/injection, schedule: Q04DX003 (ip), vehicle: water) is 183 % of control and 212 % of control; the T/C (dose: 25.0 mg/kg/injection, schedule: Q04DX003 (ip), vehicle: water) was 152 % of control.

Take `C[n+]1c2ccccc2c(Oc2c3ccccc3[n+](C)c3ccccc23)c2ccccc21`: the T/C is, setting by setting: under setting [5], 91 % of control; under setting [7], 93 % of control; under setting [8], 100 % of control.

Take `COC(=O)c1nc(N)nc(C(=O)OC)c1C(=O)c1ccc(Cl)cc1`: the T/C reads like this: under setting [5], 103 % of control; under setting [7], 101 % of control.

Turning to `COc1ccc(N/C(=C/C#N)c2ccccc2)cc1`, the T/C is 100 % of control (dose: 100.0 mg/kg/injection, schedule: Q01DX001 (ip), vehicle: saline with Tween-80); 99 % of control (dose: 200.0 mg/kg/injection, schedule: Q01DX001 (ip), vehicle: saline with Tween-80); 95 % of control (dose: 400.0 mg/kg/injection, schedule: Q01DX001 (ip), vehicle: saline with Tween-80).

As to `CCCCCCCCCCCCCC(CCCCCCCC)CCCCCCCC`, the T/C reads like this: (dose: 50.0 mg/kg/injection, schedule: Q01DX001 (ip), vehicle: saline sonified) 100 % of control; (dose: 100.0 mg/kg/injection, schedule: Q01DX001 (ip), vehicle: saline sonified) 113 % of control; (dose: 200.0 mg/kg/injection, schedule: Q01DX001 (ip), vehicle: saline sonified) 100 % of control.

`COC1/C=C\OC2(C)Oc3c(C)c(O)c4c(O)c(c5c(c4c3C2=O)NC2(CCN(Cc3ccccc3)CC2)N=5)=NC(=O)/C(C)=C\C=C\C(C)C(O)C(C)C(O)C(C)C(OC(C)=O)C1C` (stereo unspecified): the T/C reads like this: (dose: 25.0 mg/kg/injection, schedule: Q01DX009 (ip), vehicle: Klucel (hydroxypropylcellulose) (HPC)) 102 % of control; under setting [9], 107 % of control; under setting [10], 111 % of control; under setting [11], 103 % of control.

For the compound `CC1CC(=O)NC(=O)N1` (stereo unspecified), the T/C is 96 % of control under setting [4]; 102 % of control under setting [6]; 97 % of control under setting [13]; 99 % of control under setting [12]; 94 % of control under setting [14]; 103 % of control under setting [16].

For `CN1CCC2(CC1)COCc1ccccc12`, the T/C reads like this: (dose: 25.0 mg/kg/injection, schedule: Q01DX009 (ip), vehicle: saline with Tween-80) 101 % of control; under setting [4], 104 % of control.
